Values after ≈ are worked out from the molar mass of the structure shown. *1 amine or outer side, *2 acyl side, *3 side chain or, on linkers, in order; H or OH if unused. Where a SMILES comes first, the peptide text is derived from it. Side-chain parts run from the residue outwards. [ ]: non-standard residue; d: D form. The star is where a group is joined. γGlu = O=C(O)[C@H](CCC(=O)[*:2])N[*:1]; Stearoyl = CCCCCCCCCCCCCCCCCC(=O)*; Palmitoyl = CCCCCCCCCCCCCCCC(=O)*; Aib = CC(C)(N)C(=O)O; βAla = NCCC(=O)O

Series [1] in a line: Chemical stability in solution, 7 days at 25° C. (% remaining peptide). Conditions: % remaining peptide after 7 days at 25° C.
Description: After that time course, the sample was centrifuged for 20 min at 4000 rpm and the supernatant was analysed with HPLC-UV. For determination of the amount of the remaining peptide, the peak areas of the target compound at t0 and t7 were compared, resulting in “% remaining peptide”, following the equation % remaining peptide=[(peak area peptide t7)×100]/peak area peptide t0.
The chemical stability is expressed as “% remaining peptide”.
The nature of series [2]: Solubility testing in buffer (HPLC-UV). The note with it: buffer.
Series [3] in a line: Pharmacokinetic testing in mice, s.c. The note with it: mouse, plasma, sc, 1 mg/kg.
Description: Mice were dosed 1 mg/kg subcutaneously (s.c.). The mice were sacrified and blood samples were collected after 0.25, 0.5, 1, 2, 4, 8, 16 and 24 hours post application. Plasma samples were analyzed after protein precipitation via liquid chromatography mass spectrometry (LC/MS). PK parameters and half-life were calculated using WinonLin Version 5.2.1 (non-compartment model).
The next series concerns the target T1, human GLP-1 receptor (Homo sapiens, UniProt P43220).
T1 construct: expressed in transfected cells
Description: cAMP response (HTRF) of HEK-293 cells stably expressing human GLP-1 receptor. Conditions: Table 7; cAMP formation; read-out: EC50 hGLP-1 R. The series is classed as cell-based. The procedure: cAMP content of cells was determined using a kit from Cisbio Corp. (cat. no. 62AM4PEC) based on HTRF (Homogenous Time Resolved Fluorescence). For preparation, cells were split into T175 culture flasks and grown overnight to near confluency in medium (DMEM/10% FBS). Medium was then removed and cells washed with PBS lacking calcium and magnesium, followed by proteinase treatment with accutase (Sigma-Aldrich cat. no. A6964). Detached cells were washed and resuspended in assay buffer (1×HBSS; 20 mM HEPES, 0.1% BSA, 2 mM IBMX) and cellular density determined. They were then diluted to 400000 cells/ml and 25 μl-aliquots dispensed into the wells of 96-well plates. For measurement, 25 μl of test compound in assay buffer was added to the wells, followed by incubation for 30 minutes at room temperature.
In general terms: TR-FRET usually uses a lanthanide donor and a delayed reading to cut background.

T1 sequence (P43220 24-463): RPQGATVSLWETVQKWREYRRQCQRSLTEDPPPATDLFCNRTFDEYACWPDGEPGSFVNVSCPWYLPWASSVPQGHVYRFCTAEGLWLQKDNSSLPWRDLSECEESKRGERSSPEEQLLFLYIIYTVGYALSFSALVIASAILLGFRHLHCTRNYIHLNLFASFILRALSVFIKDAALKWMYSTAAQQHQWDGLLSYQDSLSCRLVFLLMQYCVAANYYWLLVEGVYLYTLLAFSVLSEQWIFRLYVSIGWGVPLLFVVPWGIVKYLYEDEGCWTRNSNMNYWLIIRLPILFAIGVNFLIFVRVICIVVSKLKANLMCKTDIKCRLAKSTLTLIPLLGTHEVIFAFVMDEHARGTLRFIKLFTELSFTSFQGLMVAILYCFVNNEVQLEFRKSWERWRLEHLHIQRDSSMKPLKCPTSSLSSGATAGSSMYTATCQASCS

What is called solubility is how much of the substance goes into solution per volume. A low value points to a poorly soluble substance. The Cmax is the highest concentration seen after dosing. One may read the half-life as the time needed for the level to fall by half in the phase considered. Low readings indicate fast loss, high ones slow loss. For `CCCCCCCCCCCCCCCCCC(=O)N[C@@H](CCC(=O)NCCCC[C@H](NC(=O)[C@H](CCC(N)=O)NC(=O)[C@@H](NC(=O)[C@H](CO)NC(=O)[C@H](CC(C)C)NC(=O)[C@H](CC(=O)O)NC(=O)[C@H](CO)NC(=O)[C@@H](NC(=O)[C@H](Cc1ccccc1)NC(=O)[C@@H](NC(=O)CNC(=O)[C@H](CCC(=O)O)NC(=O)C(C)(C)NC(=O)[C@@H](N)Cc1ccc(O)cc1)[C@@H](C)O)[C@@H](C)O)[C@@H](C)CC)C(=O)N[C@@H](CCC(=O)O)C(=O)N[C@@H](CCCCN)C(=O)N[C@@H](CCCNC(=N)N)C(=O)N[C@@H](C)C(=O)N[C@@H](C)C(=O)NC(C)(C)C(=O)N[C@@H](CCC(=O)O)C(=O)N[C@@H](Cc1ccccc1)C(=O)N[C@H](C(=O)N[C@@H](CCC(=O)O)C(=O)N[C@@H](Cc1c[nH]c2ccccc12)C(=O)N[C@@H](CC(C)C)C(=O)N[C@@H](CCCCN)C(=O)N[C@@H](CC(N)=O)C(=O)N[C@H](C(=O)NCC(=O)N1CCC[C@H]1C(=O)N[C@@H](CO)C(=O)N[C@@H](CO)C(=O)NCC(=O)N[C@@H](C)C(=O)N1CCC[C@H]1C(=O)N1CCC[C@H]1C(=O)N1CCC[C@H]1C(=O)N[C@@H](CO)C(N)=O)[C@@H](C)O)[C@@H](C)CC)C(=O)O` [SEQ ID NO: 15, Y-Aib-E-G-T-F-T-S-D-L-S-I-Q-K(γE-x70)-E-K-R-A-A-Aib-E-F-I-E-W-L-K-N-T-G-P-S-S-G-A-P-P-P-S-NH2] (H-Y[Aib]EGTFTSDLSIQK([γGlu-Stearoyl])EKRAA[Aib]EFIEWLKNTGPSSGAPPPS-NH2), in series [1], the “Stability (pH 4.5)” value was determined as 91.0% and the “Stability (pH 7.4)” value was determined as 90.0%. For the same molecule, in series [2] (pH 4.5), the solubility at 2 h came out at 997 µg/mL (≈ 216 µM). In series [2] (pH 7.4), the solubility at 2 h was over 1000 µg/mL. In series [3], this molecule showed a Cmax of 5000 ng/mL and a half-life of 3.5 h.

What is called EC50 is the concentration needed to bring the measured effect to its halfway point. On to `CCCCCCCCCCCCCCCCCC(=O)NCCC(=O)NCCC(=O)NCCCC[C@H](NC(=O)[C@H](CCC(N)=O)NC(=O)[C@@H](NC(=O)[C@H](CO)NC(=O)[C@H](CC(C)C)NC(=O)[C@H](CC(=O)O)NC(=O)[C@H](CO)NC(=O)[C@@H](NC(=O)[C@H](Cc1ccccc1)NC(=O)[C@@H](NC(=O)CNC(=O)[C@H](CCC(=O)O)NC(=O)C(C)(C)NC(=O)[C@@H](N)Cc1ccc(O)cc1)[C@@H](C)O)[C@@H](C)O)[C@@H](C)CC)C(=O)N[C@@H](CCC(=O)O)C(=O)N[C@@H](CCCCN)C(=O)N[C@@H](CCCNC(=N)N)C(=O)N[C@@H](C)C(=O)N[C@@H](C)C(=O)NC(C)(C)C(=O)N[C@@H](CCC(=O)O)C(=O)N[C@@H](Cc1ccccc1)C(=O)N[C@H](C(=O)N[C@@H](CCC(=O)O)C(=O)N[C@@H](Cc1c[nH]c2ccccc12)C(=O)N[C@@H](CC(C)C)C(=O)N[C@@H](CCCCN)C(=O)N[C@@H](CC(N)=O)C(=O)N[C@H](C(=O)NCC(=O)N1CCC[C@H]1C(=O)N[C@@H](CO)C(=O)N[C@@H](CO)C(=O)NCC(=O)N[C@@H](C)C(=O)N1CCC[C@H]1C(=O)N1CCC[C@H]1C(=O)N1CCC[C@H]1C(=O)N[C@@H](CO)C(N)=O)[C@@H](C)O)[C@@H](C)CC` [SEQ ID NO: 18, Y-Aib-E-G-T-F-T-S-D-L-S-I-Q-K(βA-βA-x70)-E-K-R-A-A-Aib-E-F-I-E-W-L-K-N-T-G-P-S-S-G-A-P-P-P-S-NH2] (H-Y[Aib]EGTFTSDLSIQK([βAla-βAla-Stearoyl])EKRAA[Aib]EFIEWLKNTGPSSGAPPPS-NH2), for which the EC50 on human GLP-1 receptor was found to be 7.6 pM. In series [3], this molecule gave a Cmax of 5750 ng/mL and a half-life of 2.1 h.

Consider `CCCCCCCCCCCCCCCC(=O)N[C@@H](CCC(=O)NCCCC[C@H](NC(=O)[C@H](CCC(N)=O)NC(=O)[C@@H](NC(=O)[C@H](CO)NC(=O)[C@H](CC(C)C)NC(=O)[C@H](CC(=O)O)NC(=O)[C@H](CO)NC(=O)[C@@H](NC(=O)[C@H](Cc1ccccc1)NC(=O)[C@@H](NC(=O)CNC(=O)[C@H](CCC(=O)O)NC(=O)C(C)(C)NC(=O)[C@@H](N)Cc1ccc(O)cc1)[C@@H](C)O)[C@@H](C)O)[C@@H](C)CC)C(=O)N[C@@H](CCC(=O)O)C(=O)N[C@@H](CCCCN)C(=O)N[C@@H](CCCNC(=N)N)C(=O)N[C@@H](C)C(=O)N[C@@H](C)C(=O)N[C@@H](CCC(N)=O)C(=O)N[C@@H](CCC(=O)O)C(=O)N[C@@H](Cc1ccccc1)C(=O)N[C@H](C(=O)N[C@@H](CCC(=O)O)C(=O)N[C@@H](Cc1c[nH]c2ccccc12)C(=O)N[C@@H](CC(C)C)C(=O)N[C@@H](CCCCN)C(=O)N[C@@H](CC(N)=O)C(=O)N[C@H](C(=O)NCC(=O)N1CCC[C@H]1C(=O)N[C@@H](CO)C(=O)N[C@@H](CO)C(=O)NCC(=O)N[C@@H](C)C(=O)N1CCC[C@H]1C(=O)N1CCC[C@H]1C(=O)N1CCC[C@H]1C(=O)N[C@@H](CO)C(N)=O)[C@@H](C)O)[C@@H](C)CC)C(=O)O` [SEQ ID NO: 26, Y-Aib-E-G-T-F-T-S-D-L-S-I-Q-K(γE-x53)-EKRAAQEFIEWLKNTGPSSGAPPPS-NH2] (H-Y[Aib]EGTFTSDLSIQK([γGlu-Palmitoyl])EKRAAQEFIEWLKNTGPSSGAPPPS-NH2), for which, on human GLP-1 receptor, the EC50 stood at 4.9 pM. In series [3], this molecule had a Cmax of 3120 ng/mL and a half-life of 3.7 h.

With `CCCCCCCCCCCCCCCC(=O)N[C@@H](CCC(=O)NCCCC[C@H](NC(=O)[C@H](CCC(N)=O)NC(=O)[C@@H](NC(=O)[C@H](CO)NC(=O)[C@H](CC(C)C)NC(=O)[C@H](CC(=O)O)NC(=O)[C@H](CO)NC(=O)[C@@H](NC(=O)[C@H](Cc1ccccc1)NC(=O)[C@@H](NC(=O)CNC(=O)[C@H](CCC(=O)O)NC(=O)C(C)(C)NC(=O)[C@@H](N)Cc1ccc(O)cc1)[C@@H](C)O)[C@@H](C)O)[C@@H](C)CC)C(=O)N[C@@H](CC(=O)O)C(=O)N[C@@H](CCCCN)C(=O)N[C@@H](CCCNC(=N)N)C(=O)N[C@@H](C)C(=O)N[C@@H](C)C(=O)N[C@@H](CCC(N)=O)C(=O)N[C@@H](CC(=O)O)C(=O)N[C@@H](Cc1ccccc1)C(=O)N[C@H](C(=O)N[C@@H](CCC(=O)O)C(=O)N[C@@H](Cc1c[nH]c2ccccc12)C(=O)N[C@@H](CC(C)C)C(=O)N[C@@H](CCCCN)C(=O)N[C@@H](C)C(=O)NCC(=O)NCC(=O)N1CCC[C@H]1C(=O)N[C@@H](CO)C(=O)N[C@@H](CO)C(=O)NCC(=O)N[C@@H](C)C(=O)N1CCC[C@H]1C(=O)N1CCC[C@H]1C(=O)N1CCC[C@H]1C(=O)N[C@@H](CO)C(N)=O)[C@@H](C)CC)C(=O)O` [SEQ ID NO: 31, Y-Aib-E-G-T-F-T-S-D-L-S-I-Q-K(γE-x53)-DKRAAQDFIEWLKAGGPSSGAPPPS-NH2], the “Stability (pH 4.5)” value in series [1] was 94.0%. In addition, the “Stability (pH 7.4)” value in series [1] was 96.0%. Also, the solubility at 2 h in series [2] (pH 4.5) and in series [2] (pH 7.4) was over 1000 µg/mL in each case. The EC50 at human GLP-1 receptor was 6 pM.

Consider `CCCCCCCCCCCCCCCC(=O)N[C@@H](CCC(=O)NCCCC[C@H](NC(=O)[C@H](CCC(N)=O)NC(=O)[C@@H](NC(=O)[C@H](CO)NC(=O)[C@H](CC(C)C)NC(=O)[C@H](CC(=O)O)NC(=O)[C@H](CO)NC(=O)[C@@H](NC(=O)[C@H](Cc1ccccc1)NC(=O)[C@@H](NC(=O)CNC(=O)[C@H](CCC(=O)O)NC(=O)C(C)(C)NC(=O)[C@@H](N)Cc1ccc(O)cc1)[C@@H](C)O)[C@@H](C)O)[C@@H](C)CC)C(=O)N[C@@H](CCC(=O)O)C(=O)N[C@@H](CO)C(=O)N[C@@H](CCCNC(=N)N)C(=O)N[C@@H](C)C(=O)N[C@@H](C)C(=O)NC(C)(C)C(=O)N[C@@H](CCC(=O)O)C(=O)N[C@@H](Cc1ccccc1)C(=O)N[C@H](C(=O)N[C@@H](CCC(=O)O)C(=O)N[C@@H](Cc1c[nH]c2ccccc12)C(=O)N[C@@H](CC(C)C)C(=O)N[C@@H](CCCCN)C(=O)N[C@@H](C)C(=O)NCC(=O)NCC(=O)N1CCC[C@H]1C(=O)N[C@@H](CO)C(=O)N[C@@H](CO)C(=O)NCC(=O)N[C@@H](C)C(=O)N1CCC[C@H]1C(=O)N1CCC[C@H]1C(=O)N1CCC[C@H]1C(=O)N[C@@H](CO)C(N)=O)[C@@H](C)CC)C(=O)O` [SEQ ID NO: 35, Y-Aib-E-G-T-F-T-S-D-L-S-I-Q-K(γE-x53)-E-S-R-A-A-Aib-E-F-I-E-W-L-K-A-G-G-P-S-S-G-A-P-P-P-S-NH2] (H-Y[Aib]EGTFTSDLSIQK([γGlu-Palmitoyl])ESRAA[Aib]EFIEWLKAGGPSSGAPPPS-NH2), for which the “Stability (pH 4.5)” value in series [1] was determined as 100.0%. Further, in series [1], the “Stability (pH 7.4)” value was determined as 98.0%. In addition, the solubility at 2 h in series [2] (pH 4.5) was 424 µg/mL (≈ 95.4 µM); in series [2] (pH 7.4), over 1000 µg/mL. For the same molecule, at human GLP-1 receptor, the EC50 worked out at 6.9 pM.

The record behind these values is patent US9670261B2 (Sanofi, priority 2012, dated 2017).
